# Data as given in patent US5416118A, “Bicyclic amides as inhibitors of acyl-coenzyme A: cholesterol acyl transferase” (Schering Corporation, priority 1993, dated 1995).
# How the values were obtained:
# ACAT = ACAT Assay (in vitro); type: biochemical; settings: dose = 10 μM; rat liver microsomes
# Experimental: This assay measures the activity of ACAT by measuring the ACAT-mediated transfer of tritiated oleic acid from acyl-CoA to cholesterol to give labelled cholesterol oleate. Rat liver microsomes are used as the source of ACAT. Assays are performed in round bottom microtiterplates using a total incubation volume of 50 μL. Each incubation well receives 10 μL assay buffer (0.5M KHPO4, 10 μM dithiothreitol, pH 7.4), 7.5 μL of 40 mg/mL BSA (Bovine Serum Albumin) and 12.5 μg of microsomal protein. The test compound (in sufficient amount to bring the final concentration to from 0.1 to 25 μM), reference compound, or vehicle control is added and the final volume brought to 47 μL. The microtiterplate is then floated on the surface of a 37° C. water bath for fifteen minutes. Incubations are started by the addition of 3 μL ^3 H-acyl CoA (1 μCi/well, final concentration of 10 μM acyl CoA). The plate is then returned to the water bath for 15 minutes. The incubations are then terminated by application of 15 μL from each incubation to individual lanes on a thin layer plate (Silica Gel GF 20×20 cm). Standards are applied to several lanes so that the cholesterol ester band can be identified. After drying, the plates are eluted with 90:10:1 petroleum ether:ether:HOAc. The standards are visualized via iodine vapor, and the regions corresponding to cholesterol ester are scraped into 7 mL scintillation vials. 4 mL of scintillant are added to each vial, and the radioactivity quantified. Background count is determined by the boiled controls. Full activity is determined by activity in the presence of vehicle. The percent inhibition is calculated by subtracting the background from both control and test samples, and the test value is calculated as a percentage of the control. For IC50 determinations, the inhibition is plotted against drug doses on a log scale and the concentration at which 50% inhibition is obtained is determined.
# (§1) Using the assay methods described above, the compounds of Examples 1-9 were tested for in vitro ACAT inhibitory activity and for the ability to lower the level of cholesteryl esters in vivo.
# cholesteryl esters = assay: In Vivo Assay of Hypolipidemic Agents Using the Hyperlipidemic Hamster; settings: Mesocricetus auratus, po, 168 h, oral gavage once daily, 7 days, versus control, read-out: % Reduction in cholesteryl esters; for change in vivo at 10 mg/kg: 10 mpk; for change in vivo at 25 mg/kg: 25 mpk; for change in vivo at 50 mg/kg: 50 mpk
# Experimental: In Vivo Assay of Hypolipidemic Agents Using the Hyperlipidemic Hamster
# Hamsters are separated into groups of six and given a control cholesterol diet (Pudna Chow #5001 containing 0.5% cholesterol) for seven days. Diet consumption is monitored to determine dietary cholesterol exposure in the face of test compounds. The animals are dosed with the test compound once daily beginning with the initiation of diet. Dosing is by oral gavage of 0.2 mL of corn oil alone (control group) or solution (or suspension) of test compound in corn oil. All animals moribund or in poor physical condition are euthanized. After seven days, the animals are anesthetized by […] of ketamine and sacrificed by decapitation. Blood is collected into vacutainer tubes containing EDTA for plasma lipid analysis and the liver excised for tissue lipid analysis. Data is reported as percent reduction of lipid versus control.
# as §1
SMILES,ACAT % Inhibition (ACAT) [%],change in vivo at 50 mg/kg (cholesteryl esters) [%],other results
"O=C(N[C@H]1c2ccccc2C[C@H]1c1ccc(O)cc1)C(c1ccccc1)c1ccccc1 (relative stereo) [Example 3, cis-N-[2-(4'-hydroxyphenyl)indanyl]-αphenylbenzeneacetamide]",99,-89,change in vivo at 10 mg/kg (cholesteryl esters): -71%; change in vivo at 25 mg/kg (cholesteryl esters): -87.5%
COc1ccc([C@@H]2CCCc3ccccc3[C@@H]2NC(=O)C(c2ccccc2)c2ccccc2)cc1 (relative stereo) [Example 1H],84,0,–
CCCCCCCCCC(C)(C)C(=O)N[C@@H]1c2ccccc2CC[C@H]1c1ccc(O)cc1 (relative stereo) [Example 3H],86,0,–
O=C(N[C@@H]1c2ccccc2CC[C@H]1c1cccc(O)c1)C(c1ccccc1)c1ccccc1 (relative stereo) [Example 3D],98,0,–
O=C(N[C@@H]1c2ccc(O)cc2CC[C@H]1c1ccccc1)C(c1ccccc1)c1ccccc1 (relative stereo) [Example 3N],92,0,–
"Nc1ccc([C@@H]2Cc3ccccc3[C@H]2NC(=O)C(c2ccccc2)c2ccccc2)cc1 (relative stereo) [Example 5, trans-N-[2-(4'-aminophenyl)indanyl]-α-phenylbenzeneacetamide]",94,–,–
O=C(N[C@H]1c2ccccc2C[C@H]1c1ccccc1)C(c1ccccc1)c1ccccc1 (relative stereo) [Example 2S],83,16,–
O=C(N[C@H]1c2ccccc2OC[C@@H]1c1ccccc1)C(c1ccccc1)c1ccccc1 (relative stereo) [Example 1M],85,0,–
O=C(N[C@@H]1c2c(O)cccc2CC[C@H]1c1ccccc1)C(c1ccccc1)c1ccccc1 (relative stereo) [Example 3CC],–,-20,–
COc1cccc([C@@H]2Cc3ccccc3[C@@H]2NC(=O)C(c2ccccc2)c2ccccc2)c1 (relative stereo) [Example 2A],99,0,–
CCCCCCCC/C=C\CCCCCCCC(=O)N[C@H]1c2ccccc2CC[C@@H]1c1ccccc1 (relative stereo) [Example 2M],99,–,change in vivo at 100 mg/kg (cholesteryl esters; 100 mpk): 0%
O=C(N[C@H]1c2ccccc2C[C@H]1c1cccc([N+](=O)[O-])c1)C(c1ccccc1)c1ccccc1 (relative stereo) [Example 2C],99,0,–
O=C(N[C@@H]1c2ccccc2CC[C@H]1c1ccccc1O)C(c1ccccc1)c1ccccc1 (relative stereo) [Example 3A],–,0,–
"Cc1cc([C@H]2Cc3ccccc3[C@H]2NC(=O)C(c2ccccc2)c2ccccc2)ccc1O (single isomer, unassigned) [Example 9, (+)-cis-N-[2-(4'-hydroxy-3'-methylphenyl)indanyl]-α-phenylbenzeneacetamide]",98,-66,–
"O=C(N[C@@H]1c2cc(O)ccc2CC[C@H]1c1ccccc1)C(c1ccccc1)c1ccccc1 (single isomer, unassigned) [Example 3Y]",83,–,–
COc1ccc2c(c1)[C@H](NC(=O)C(c1ccccc1)c1ccccc1)[C@H](c1ccccc1)C2 (relative stereo) [Example 2Q],16,–,–
O=C(N[C@@H]1c2ccccc2CCC[C@H]1c1ccc(O)cc1)C(c1ccccc1)c1ccccc1 (relative stereo) [Example 3J],–,-61,–
O=C(N[C@H]1c2ccccc2C[C@@H]1c1ccc([N+](=O)[O-])cc1)C(c1ccccc1)c1ccccc1 (relative stereo) [Example 2J],-12,–,–
CCCCCCCC/C=C\CCCCCCCC(=O)N[C@H]1c2ccccc2OC[C@@H]1c1ccccc1 (relative stereo) [Example 2O],87,–,–
COc1ccc2c(c1)[C@H](NC(=O)C(c1ccccc1)c1ccccc1)[C@@H](c1ccccc1)C2 (relative stereo) [Example 2T],15,–,–
COc1cccc([C@H]2CCc3ccccc3[C@@H]2NC(=O)C(c2ccccc2)c2ccccc2)c1 (relative stereo) [Example 1D],–,0,–

SMILES,ACAT % Inhibition (ACAT) [%],change in vivo at 50 mg/kg (cholesteryl esters) [%],other results
O=C(N[C@@H]1c2ccccc2CCC[C@@H]1c1ccc(O)cc1)C(c1ccccc1)c1ccccc1 (relative stereo) [Example 3R],–,0,–
O=C(N[C@@H]1c2cccc(O)c2CC[C@@H]1c1ccccc1)C(c1ccccc1)c1ccccc1 (relative stereo) [Example 3T],–,0,–
"O=C(N[C@@H]1c2cc(O)ccc2CC[C@H]1c1ccccc1)C(c1ccccc1)c1ccccc1 (single isomer, unassigned) [Example 3Z]",92,–,–
CCCCCCCC/C=C\CCCCCCCC(=O)N[C@H]1c2ccccc2CC[C@H]1c1ccccc1 (relative stereo) [Example 2L],66,–,–
COc1ccc([C@H]2CCc3ccc(OC)cc3[C@@H]2NC(=O)C(c2ccccc2)c2ccccc2)cc1 (relative stereo) [Example 1R],–,0,–
O=C(N[C@H]1c2ccccc2C[C@H]1c1ccc([N+](=O)[O-])cc1)C(c1ccccc1)c1ccccc1 (relative stereo) [Example 2I],51,–,–
COc1ccc([C@H]2CCCc3ccccc3[C@@H]2NC(=O)C(c2ccccc2)c2ccccc2)cc1 (relative stereo) [Example 1I],63,–,–
O=C(N[C@@H]1c2cc(O)ccc2CC[C@H]1c1ccc(O)cc1)C(c1ccccc1)c1ccccc1 (relative stereo) [Example 3U],–,-97,change in vivo at 10 mg/kg (cholesteryl esters): -60%; change in vivo at 30 mg/kg (cholesteryl esters; 30 mpk): -86%
COc1ccccc1[C@H]1CCc2ccccc2[C@@H]1NC(=O)C(c1ccccc1)c1ccccc1 (relative stereo) [Example 1B],–,21,–
"COc1ccc([C@@H]2CCc3ccccc3[C@@H]2NC(=O)C(c2ccccc2)c2ccccc2)cc1 (relative stereo) [Example 1, cis-N-[-2-(4'-methoxyphenyl)-1,2,3,4-tetrahydronaphthalen-1-yl]-α-phenylbenzeneacetamide]",–,0,–
"O=C(N[C@@H]1c2ccccc2C[C@@H]1c1ccc(O)cc1)C(c1ccccc1)c1ccccc1 (single isomer, unassigned) [Example 3BB]",< 0,–,–
O=C(N[C@@H]1c2cccc(O)c2CC[C@H]1c1ccccc1)C(c1ccccc1)c1ccccc1 (relative stereo) [Example 3S],–,0,–
O=C(N[C@H]1c2ccccc2C[C@@H]1c1cccc([N+](=O)[O-])c1)C(c1ccccc1)c1ccccc1 (relative stereo) [Example 2D],90,–,–
COc1cccc([C@H]2Cc3ccccc3[C@@H]2NC(=O)C(c2ccccc2)c2ccccc2)c1 (relative stereo) [Example 2B],94,–,–
O=C(N[C@H]1c2ccccc2CC[C@@H]1c1ccncc1)C(c1ccccc1)c1ccccc1 (relative stereo) [Example 1J],–,-39,–
Nc1ccc([C@H]2CCc3ccccc3[C@@H]2NC(=O)C(c2ccccc2)c2ccccc2)cc1 (relative stereo) [Example 2P],–,–,change in vivo at 25 mg/kg (cholesteryl esters): -15%
O=C(N[C@@H]1c2c(O)cccc2C[C@@H]1c1ccccc1)C(c1ccccc1)c1ccccc1 (relative stereo) [Example 3X],97,–,–
COc1ccc([C@H]2CCc3ccccc3[C@@H]2NC(=O)C(c2ccccc2)c2ccccc2)cc1 (relative stereo) [Example 1G],–,0,–
O=C(N[C@@H]1c2ccc(O)cc2C[C@H]1c1ccccc1)C(c1ccccc1)c1ccccc1 (relative stereo) [Example 3L],93,–,–
O=C(N[C@@H]1c2cc(O)ccc2CC[C@@H]1c1ccc(O)cc1)C(c1ccccc1)c1ccccc1 (relative stereo) [Example 3V],–,0,–
